Test results from ChEMBL document CHEMBL1201862, “PubChem BioAssay data set” (2004).
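Results reflect a 48-hour exposure of cells in 96-well plates to compound at five concentrations. The concentration for 50% growth inhibition is given as GI50.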 The source made the active and inactive calls. Rule as the data show it: active = GI50 up to about 1.1 µM and inactive = higher.

What was measured:
Assay in all cases: NCI anticancer screen, dose series, 48 h
[1] = tested on: OVCAR-5
[2] = tested on: M19-MEL
[3] = tested on: HOP-62
[4] = tested on: CAKI-1
[5] = tested on: OVCAR-3
[6] = tested on: HOP-92
[7] = tested on: K562
[8] = tested on: OVCAR-4
[9] = tested on: RPMI-8226
[10] = tested on: SN12C
[11] = tested on: SF-295
[12] = tested on: HCT-15
[13] = tested on: HT-29
[14] = tested on: KM-20L2
[15] = tested on: RXF 393
[16] = tested on: IGROV-1
[17] = tested on: LOX IMVI
[18] = tested on: UACC-257
[19] = tested on: UO-31
[20] = tested on: LXFL 529
[21] = tested on: SK-MEL-28
[22] = tested on: OVCAR-8
[23] = tested on: MDA-N
[24] = tested on: KM12
[25] = tested on: SF-268
[26] = tested on: SNB-78
[27] = tested on: MDA-MB-435
[28] = tested on: ACHN
[29] = tested on: PC-3
[30] = tested on: NCI-H522
[31] = tested on: SR
[32] = tested on: HCC 2998
[33] = tested on: DMS-114
[34] = tested on: SNB-75
[35] = tested on: A498
[36] = tested on: SF-539
[37] = tested on: TK-10
[38] = tested on: HOP-18
[39] = tested on: 786-0
[40] = tested on: NCI/ADR-RES
[41] = tested on: SK-MEL-2
[42] = tested on: DLD-1
[43] = tested on: M14
[44] = tested on: MCF7
[45] = tested on: Malme-3M
[46] = tested on: SK-OV-3
[47] = tested on: XF498
[48] = tested on: MDA-MB-231
[49] = tested on: HCT-116
[50] = tested on: COLO 205
[51] = tested on: DU-145
[52] = tested on: EKVX
[53] = tested on: SW-620
[54] = tested on: NCI-H23
[55] = tested on: SK-MEL-5
[56] = tested on: Hs-578T
[57] = tested on: CCRF-CEM
[58] = tested on: NCI-H460
[59] = tested on: MOLT-4
[60] = tested on: BT-549
[61] = tested on: UACC-62
[62] = tested on: HL-60
[63] = tested on: NCI-H226
[64] = tested on: DMS-273
[65] = tested on: SNB-19
[66] = tested on: A549
[67] = tested on: U-251
[68] = tested on: RXF 631

Measured: GI50

CCCCCCCCCCCCCCCC(=O)OCC1OC(OC)C(NC(=O)N(CCCl)N=O)C(O)C1O (configuration not stated)
13.1 µM: [12]
inactive: [1] 35 µM | [2] 22.5 µM | [3] 8.04 µM | [4] 14.5 µM | [5] 19.6 µM | [6] 17.4 µM | [7] 10.7 µM | [8] 20 µM | [9] 21.3 µM | [10] 13.4 µM | [11] 4.48 µM | [13] 14.5 µM | [14] 20.3 µM | [15] 16.7 µM | [16] 18.1 µM | [17] 2.36 µM | [18] 19.7 µM | [19] 24 µM | [20] 16.3 µM | [21] 28.5 µM | [22] 15.5 µM | [23] 15.1 µM | [24] 19 µM | [25] 3.34 µM | [26] 24.5 µM | [27] 16.7 µM | [28] 13.4 µM | [29] 15.7 µM | [30] 15.9 µM | [32] 18.4 µM | [33] 13.2 µM | [34] 7 µM | [35] 29.6 µM | [36] 3.32 µM | [37] 22.8 µM | [38] 32.4 µM | [39] 2.01 µM | [40] 13.9 µM | [41] 17.7 µM | [42] 14.7 µM | [43] 16.8 µM | [44] 45.4 µM | [45] 20.9 µM | [46] 21.8 µM | [47] 7.66 µM | [48] 17.9 µM | [49] 13 µM | [50] 19.2 µM | [51] 19.5 µM | [52] 31.2 µM | [53] 9.48 µM | [54] 11.5 µM | [55] 21.1 µM | [56] 23 µM | [57] 7.36 µM | [58] 5.61 µM | [59] 6.32 µM | [60] 28.3 µM | [61] 2.02 µM | [62] 4.57 µM | [63] 15.5 µM | [64] 10.2 µM | [65] 14.8 µM | [66] 9.68 µM | [67] 8.38 µM
active: [31] 0.851 µM

Cc1cccc(C)c1NC(=O)CCc1nnc(S)[nH]1
> 100 µM: [12]
inactive: [1] > 100 µM | [2] > 100 µM | [3] > 100 µM | [4] > 100 µM | [6] > 100 µM | [7] > 100 µM | [8] > 100 µM | [9] > 100 µM | [10] > 100 µM | [14] > 100 µM | [15] > 100 µM | [16] > 100 µM | [17] > 100 µM | [19] > 100 µM | [20] > 100 µM | [21] > 100 µM | [22] > 100 µM | [25] > 100 µM | [26] > 100 µM | [28] > 100 µM | [30] > 100 µM | [68] > 100 µM | [32] > 100 µM | [33] > 100 µM | [34] > 100 µM | [35] > 100 µM | [36] > 100 µM | [37] > 100 µM | [39] > 100 µM | [41] > 100 µM | [42] > 100 µM | [43] > 100 µM | [45] > 100 µM | [46] > 100 µM | [47] > 100 µM | [49] > 100 µM | [50] > 100 µM | [52] > 100 µM | [53] > 100 µM | [54] > 100 µM | [57] > 100 µM | [58] > 100 µM | [59] > 100 µM | [61] > 100 µM | [62] > 100 µM | [63] > 100 µM | [65] > 100 µM | [66] > 100 µM | [67] > 100 µM
